Here are results for 1 compound from article PMC8619001, “Discovery of New Ginsenol-Like Compounds with High Antiviral Activity” (Molecules, 2021).

SMILES strings stand for the structures.

For this assay, the system named is A/Vladivostok/2/2009 (H1N1). Briefly: microbe, parasite or virus in culture. In kind it is cell-based. Conditions: Influenza A virus, H1N1, MDCK, 72 h, read-out: IC50 H1N1.

With `CC(=O)NC12CC(C)(C)C3CCC1(C)CCCC32C` [Compound 1a, (1S,3aR,4R,7aS)-N-(2,2,4,7a-tetramethyloctahydro-1,4-etanoinden-3a-yl)-acetamide], the IC50 was determined as 380 ± 51 nM.

By IC50 is commonly meant the concentration that inhibits the measured activity by half.
